Test results taken from ChEMBL document CHEMBL1143799, “Synthesis and primary cytotoxicity evaluation of new imidazo[2,1-b]thiazole derivatives” (2007).

Tests used:
Type in all cases: functional
[1] = test system: CCRF-CEM; assay: Growth inhibition of human CCRF-CEM cells after 48 hrs by SRB protein assay
[2] = test system: EKVX; assay: Growth inhibition of human EKVX cells after 48 hrs by SRB protein assay
[3] = test system: HOP-62; assay: Growth inhibition of human HOP62 cells after 48 hrs by SRB protein assay; settings: HOP-62, 48 h
[4] = test system: HOP-92; assay: Growth inhibition of human HOP92 cells after 48 hrs by SRB protein assay; settings: HOP-92, 48 h
[5] = test system: NCI-H23; assay: Growth inhibition of human NCI-H23 cells after 48 hrs by SRB protein assay; settings: NCI-H23, 48 h
[6] = test system: NCI-H460; assay: Growth inhibition of human NCI-H460 cells after 48 hrs by SRB protein assay; settings: NCI-H460, 48 h
[7] = test system: NCI-H522; assay: Growth inhibition of human NCI-H522 cells after 48 hrs by SRB protein assay; settings: NCI-H522, 48 h
[8] = test system: COLO 205; assay: Growth inhibition of human COLO205 cells after 48 hrs by SRB protein assay; settings: COLO 205, 48 h
[9] = test system: HCC 2998; assay: Growth inhibition of human HCC2998 cells after 48 hrs by SRB protein assay; settings: HCC 2998, 48 h
[10] = test system: HCT-116; assay: Growth inhibition of human HCT116 cells after 48 hrs by SRB protein assay; settings: HCT-116, 48 h
[11] = test system: HCT-15; assay: Growth inhibition of human HCT15 cells after 48 hrs by SRB protein assay; settings: HCT-15, 48 h
[12] = test system: HT-29; assay: Growth inhibition of human HT29 cells after 48 hrs by SRB protein assay; settings: HT-29, 48 h
[13] = test system: KM12; assay: Growth inhibition of human KM12 cells after 48 hrs by SRB protein assay; settings: KM12, 48 h
[14] = test system: SW-620; assay: Growth inhibition of human SW620 cells after 48 hrs by SRB protein assay; settings: SW-620, 48 h
[15] = test system: SF-268; assay: Growth inhibition of human SF268 cells after 48 hrs by SRB protein assay; settings: SF-268, 48 h
[16] = test system: SF-539; assay: Growth inhibition of human SF539 cells after 48 hrs by SRB protein assay; settings: SF-539, 48 h
[17] = test system: SNB-19; assay: Growth inhibition of human SNB19 cells after 48 hrs by SRB protein assay; settings: SNB-19, 48 h
[18] = test system: SNB-75; assay: Growth inhibition of human SNB75 cells after 48 hrs by SRB protein assay; settings: SNB-75, 48 h
[19] = test system: M14; assay: Growth inhibition of human M14 cells after 48 hrs by SRB protein assay; settings: M14, 48 h
[20] = test system: SK-MEL-28; assay: Growth inhibition of human SK-MEL-28 cells after 48 hrs by SRB protein assay; settings: SK-MEL-28, 48 h
[21] = test system: UACC-257; assay: Growth inhibition of human UACC257 cells after 48 hrs by SRB protein assay; settings: UACC-257, 48 h
[22] = test system: UACC-62; assay: Growth inhibition of human UACC62 cells after 48 hrs by SRB protein assay; settings: UACC-62, 48 h
[23] = test system: IGROV-1; assay: Growth inhibition of human IGROV1 cells after 48 hrs by SRB protein assay; settings: IGROV-1, 48 h
[24] = test system: OVCAR-3; assay: Growth inhibition of human OVCAR-3 cells after 48 hrs by SRB protein assay; settings: OVCAR-3, 48 h
[25] = test system: OVCAR-8; assay: Growth inhibition of human OVCAR8 cells after 48 hrs by SRB protein assay; settings: OVCAR-8, 48 h
[26] = test system: SK-OV-3; assay: Growth inhibition of human SK-OV-3 cells after 48 hrs by SRB protein assay; settings: SK-OV-3, 48 h
[27] = test system: CAKI-1; assay: Growth inhibition of human CAKI1 cells after 48 hrs by SRB protein assay; settings: CAKI-1, 48 h
[28] = test system: RXF 393; assay: Growth inhibition of human RXF393 cells after 48 hrs by SRB protein assay; settings: RXF 393, 48 h
[29] = test system: SN12C; assay: Growth inhibition of human SN12C cells after 48 hrs by SRB protein assay
[30] = test system: UO-31; assay: Growth inhibition of human UO31 cells after 48 hrs by SRB protein assay; settings: UO-31, 48 h
[31] = test system: PC-3; assay: Growth inhibition of human PC3 cells after 48 hrs by SRB protein assay; settings: PC-3, 48 h
[32] = test system: DU-145; assay: Growth inhibition of human DU145 cells after 48 hrs by SRB protein assay; settings: DU-145, 48 h
[33] = test system: MCF7; assay: Growth inhibition of human MCF7 cells after 48 hrs by SRB protein assay; settings: MCF7, 48 h
[34] = test system: MDA-MB-231; assay: Growth inhibition of MDA-MB-231 cells after 48 hrs by SRB protein assay; settings: Homo sapiens, MDA-MB-231, 48 h
[35] = test system: Hs-578T; assay: Growth inhibition of human HS578T cells after 48 hrs by SRB protein assay
[36] = test system: MDA-MB-435; assay: Growth inhibition of human MDA-MB-435 cells after 48 hrs by SRB protein assay; settings: MDA-MB-435, 48 h
[37] = test system: SK-MEL-5; assay: Growth inhibition of human SK-MEL-5 cells after 48 hrs by SRB protein assay; settings: SK-MEL-5, 48 h
[38] = test system: T47D; assay: Growth inhibition of human T47D cells after 48 hrs by SRB protein assay
[39] = test system: OVCAR-5; assay: Growth inhibition of human OVCAR5 cells after 48 hrs by SRB protein assay; settings: OVCAR-5, 48 h

O=C(Cc1csc2nc(-c3ccc(Br)cc3)cn12)N/N=C/c1ccc(Cl)cc1Cl
GI50 [1]: 39.8 µM | TGI ([1]; read-out: Log TGI (converted)): > 100 µM | GI50 [2]: 31.6 µM | TGI ([2]; read-out: Log TGI (converted)): > 100 µM | GI50 [3]: 16.6 µM | TGI ([3]; read-out: Log TGI (converted)): 34.7 µM | GI50 [4]: 28.2 µM | TGI ([4]; read-out: Log TGI (converted)): > 100 µM | GI50 [5]: 25.7 µM | TGI ([5]; read-out: Log TGI (converted)): 56.2 µM | GI50 [6]: > 100 µM | TGI ([6]; read-out: Log TGI (converted)): > 100 µM | GI50 [7]: 25.7 µM | TGI ([7]; read-out: Log TGI (converted)): > 100 µM | GI50 [8]: 75.9 µM | TGI ([8]; read-out: Log TGI (converted)): > 100 µM | GI50 [9]: 20 µM | TGI ([9]; read-out: Log TGI (converted)): 44.7 µM | GI50 [10]: 17 µM | TGI ([10]; read-out: Log TGI (converted)): 37.2 µM | GI50 [11]: 25.7 µM | TGI ([11]; read-out: Log TGI (converted)): 72.4 µM | GI50 [12]: 40.7 µM | TGI ([12]; read-out: Log TGI (converted)): > 100 µM | GI50 [13]: 38 µM | TGI ([13]; read-out: Log TGI (converted)): > 100 µM | GI50 [14]: 22.9 µM | TGI ([14]; read-out: Log TGI (converted)): 60.3 µM | GI50 [15]: > 100 µM | TGI ([15]; read-out: Log TGI (converted)): > 100 µM | GI50 [16]: 26.9 µM | TGI ([16]; read-out: Log TGI (converted)): 63.1 µM | GI50 [17]: 95.5 µM | TGI ([17]; read-out: Log TGI (converted)): > 100 µM | GI50 [18]: 37.2 µM | TGI ([18]; read-out: Log TGI (converted)): > 100 µM | GI50 [19]: 33.1 µM | TGI ([19]; read-out: Log TGI (converted)): > 100 µM | GI50 [20]: > 100 µM | TGI ([20]; read-out: Log TGI (converted)): > 100 µM | GI50 [21]: 69.2 µM | TGI ([21]; read-out: Log TGI (converted)): > 100 µM | GI50 [22]: 23.4 µM | TGI ([22]; read-out: Log TGI (converted)): 67.6 µM | GI50 [23]: 15.8 µM | TGI ([23]; read-out: Log TGI (converted)): 45.7 µM | GI50 [24]: 34.7 µM | TGI ([24]; read-out: Log TGI (converted)): > 100 µM | GI50 [25]: 18.6 µM | TGI ([25]; read-out: Log TGI (converted)): 50.1 µM | GI50 [26]: > 100 µM | TGI ([26]; read-out: Log TGI (converted)): > 100 µM | GI50 [27]: 36.3 µM | TGI ([27]; read-out: Log TGI (converted)): > 100 µM | GI50 [28]: 28.2 µM | TGI ([28]; read-out: Log TGI (converted)): 85.1 µM | GI50 [29]: 85.1 µM | TGI ([29]; read-out: Log TGI (converted)): > 100 µM | GI50 [30]: 72.4 µM | TGI ([30]; read-out: Log TGI (converted)): > 100 µM | GI50 [31]: 30.2 µM | TGI ([31]; read-out: Log TGI (converted)): > 100 µM | GI50 [32]: 26.3 µM | TGI ([32]; read-out: Log TGI (converted)): > 100 µM | GI50 [33]: > 100 µM | TGI ([33]; read-out: Log TGI (converted)): > 100 µM | GI50 [34]: 26.3 µM | TGI ([34]; read-out: Log TGI (converted)): > 100 µM | GI50 [35]: 31.6 µM | TGI ([35]; read-out: Log TGI (converted)): 89.1 µM | GI50 [36]: 31.6 µM | TGI ([36]; read-out: Log TGI (converted)): > 100 µM | GI50 [37]: 44.7 µM | TGI ([37]; read-out: Log TGI (converted)): > 100 µM | GI50 [38]: > 100 µM | TGI ([38]; read-out: Log TGI (converted)): > 100 µM | GI50 [39]: 28.8 µM | TGI ([39]; read-out: Log TGI (converted)): 67.6 µM
